Measured values published in publication PMC11992225, “Antibacterial compounds against non-growing and intracellular bacteria” (npj Antimicrobials and Resistance, 2025).
pEC50: −log10 of the molar value. ≈ marks a conversion by molar mass, not a printed value.

Assays:
E. coli CFT073 (UPEC) = experiment: MIC, standard microdilution assay, growing UPEC; format: cell-based, Escherichia coli; conditions: Escherichia coli; E. coli, pH 7.4; CA-MHB; read-out: MIC (μM) CA-MHB
Protocol: (§1) Minimal inhibitory concentrations (MICs) were determined using a standard microdilution assay protocol. CA-MHB medium buffered with 40 mM HEPES (pH 7.4) was used to determine the MICs for UPEC, P. aeruginosa, and S. aureus. […] MICs for UPEC were also determined in LPM buffered with 30 mM MES (pH 5.5). For S. flexneri, MICs were determined in tryptic soy broth (TSB). The assay was performed in triplicates.

P. aeruginosa DSM1117 = experiment: MIC, standard microdilution assay, growing P. aeruginosa; format: cell-based, Pseudomonas aeruginosa; conditions: Pseudomonas aeruginosa, DSM1117; P. aeruginosa; CA-MHB pH 7.4; read-out: MIC (μM) CA-MHB
Protocol: as §1

S. aureus DSM2569 = experiment: MIC, standard microdilution assay, growing S. aureus; format: cell-based, Staphylococcus aureus; conditions: Staphylococcus aureus, DSM2569; S. aureus; CA-MHB pH 7.4; read-out: MIC (μM) CA-MHB
Protocol: as §1

S. flexneri 5a M90T = experiment: MIC in tryptic soy broth, S. flexneri; format: cell-based, Shigella flexneri; conditions: Shigella flexneri, 5AM90T, read-out: MIC (μM) TSB
Protocol: as §1

non-growing UPEC CFT073 = experiment: Dilution-regrowth assay (screen, hit validation, dose-response) on stationary-phase UPEC; format: cell-based, Escherichia coli
Protocol: (§2) The cultures were incubated for 24 h in non-baffled Erlenmeyer flasks at 37 °C with shaking at 200 rpm.
The high-throughput screening (HTS) procedure was based on the protocol by Hazan and colleagues[15] and conducted at the Chemical Biology Consortium Sweden (CBCS) screening facility. […] Each plate included eight wells with 200 nl of 10 mM gatifloxacin, finafloxacin, and kanamycin solutions, along with 8-wells containing 200 nl of DMSO as controls. After 24 h incubation,100 μl of the culture was dispensed into each well of the 384-well plates for screening at a final concentration of 20 μM. The plates were sealed with parafilm and incubated at 37 °C for 24 h in closed humidified boxes, with wet paper towels added to prevent evaporation. […] The plates were incubated at 37 °C for 6 h in humidified boxes, then OD600 was measured using a microplate reader.
For hit validation, bacteria were cultivated, and the dilution-regrowth assay was conducted following the same protocol used in the primary screen. Hit compounds were dispensed into 384-well plates using the Echo® (Labcyte) system, with 200, 100, or 50 nl of a 10 mM solution in DMSO added per well, yielding final screening concentrations of 20, 10, and 5 μM, respectively. OD600 values of regrowing samples were normalized to the mean OD600 of the drug-free control. The testing was conducted in two replicates.
For UPEC, dose–response analysis was conducted at the CBCS screening facility. Bacteria were cultivated, and the dilution-regrowth assay was performed according to the HTS protocol. Compounds were dispensed into 384-well plates using the Echo® (Labcyte) system, and regrowth was assessed by measuring OD600 after 6 h of incubation at 37 °C in humidified boxes. Three biological replicates were performed.
(§3) Statistical significance of the drug effects was assessed using a one-way ANOVA followed by Dunnett’s test, comparing each treatment to the drug-free control. Statistical significance of the differences in chemical characteristics between the hit compounds and the Prestwick library was assessed using a Mann–Whitney test. Statistical significance was set at P ≤ 0.05. A five-parameter logistic equation was used for asymmetric sigmoidal curve fitting and for EC50 and IC50 determination. The Venn diagram in Fig. 1F was prepared using BioVenn web application. Characteristics of the chemical and physical properties of Prestwick library compounds were obtained from Supplementary Table S1 from reference. Characteristics of the hit compounds not included in the Prestwick library were retrieved from the PubChem database.

[1] = tested on: non-growing S. aureus DSM2569; experiment: Dilution-regrowth assay (OD600, start-growth-time) on stationary-phase S. aureus; format: cell-based, Staphylococcus aureus; conditions: S. aureus
Protocol: The cultures were grown and treated for 24 h in 1:4 CA-MHB (pH 7.4).
This approach allowed us to capture the time when cultures reached a threshold optical density (start-growth-time, SGT[15]).
as §2
For P. aeruginosa and S. aureus, dose–response analysis was conducted in 96-well plates with a 200 μl assay volume, following the procedure used for screening assay validation experiments. […] Stock solutions were prepared and stored according to the manufacturers’ instructions, then diluted in 10% DMSO before use. Cultures were incubated for 24 h in 1:4 diluted CA-MHB medium under the same conditions used for UPEC cultivation. In preliminary experiments, each compound was tested at a concentration of 20 μM in the dilution-regrowth assay with 4 technical replicates. Regrowth was monitored using a microplate reader at 37 °C with continuous shaking, and OD600 was recorded every 20 min. The time at which OD600 exceeded the threshold of 0.12 was recorded as the Start_Growth-Time.
as §3

TC7 cells = experiment: TC7 cell viability upon drug exposure, MTS assay; format: cell-based; conditions: at the MIC concentrations, 12 h, no bacteria
Protocol: TC7 cells were grown to confluence in transparent 96-well cell culture plates (TPP) in the same cell culture medium used for the in vitro infection assay. Just prior to the experiment, the medium was discarded, and the cells were washed twice with sterile PBS to remove any traces of medium or dead cells. […] The plate was incubated at 37 °C in a CO2 incubator for 12 h, under the same conditions as the infection assay.
The 3-(4,5-dimethylthiazol-2-yl)-5-(3-carboxymethoxyphenyl)-2-(4-sulfophenyl)-2H-tetrazolium (MTS) assay was performed using the CellTiter 96® AQueous One Solution Cell Proliferation Assay kit (Promega), according to the manufacturer’s instructions. Briefly, 20 μl of CellTiter 96 AQueous One Solution Reagent was added to each well, and the plate was incubated for 2 h at 37 °C in a CO2 incubator. The OD490 of the samples was measured using a Spark multimode plate reader (Tecan). The raw values were normalized to the control wells incubated with infection buffer only. The experiment was performed in duplicate.

[2] = tested on: E. coli CFT073 and BW25113; experiment: Semapimod assay: killing and regrowth of stationary-phase E. coli in two media; format: cell-based, Escherichia coli; conditions: 1% LB diluted in PBS, 20 and 50 μM, 24 h
Protocol: E. coli CFT073 and BW25113 were grown in 3 ml of LB at 37 °C, shaking at 200 rpm for 16 h. The overnight cultures were then diluted either 1:100 into 40 ml of 1:4 diluted CA-MHB (40 mM HEPES, pH 7.4) or 1:10,000 into 40 ml of 1% LB in PBS and grown in 125 mL Erlenmeyer flasks for 24 h at 37 °C, shaking at 200 rpm. Following this, 1 ml aliquots of each culture were transferred to 1.5 ml test tubes, and semapimod was added at final concentrations of 20 μM and 50 μM. DMSO was added to drug-free controls. To quantify live bacteria before treatment, a sample of each culture was serially 10-fold diluted into PBS, and 10 μL drops were spot-plated onto LB agar. The closed test tubes were incubated for 24 h at 37 °C without shaking.
After treatment, the samples were diluted 2500-fold in two steps: a 50-fold dilution into PBS, followed by a 50-fold dilution into CA-MHB in a 96-well plate with a total volume of 200 μl per well. The 96-well plate was then incubated in a BioTek Synergy H1 plate reader at 37 °C with continuous shaking at medium speed for 22 h with a lid. OD600 was recorded every 20 min. Additionally, the treated samples were diluted 1:200 into LB in another 96-well plate and incubated in a BioTek Synergy Mx plate reader at 37 °C without shaking for 22 h, with OD600 recorded every hour. […]

## [H]/N=C(\N/C(=N/[H])NCCCCCCNC(=N)NC(=N)Nc1ccc(Cl)cc1)Nc1ccc(Cl)cc1 [Chlorhexidine]
E. coli CFT073 (UPEC)
  MIC: 1 µM (≈ 0.505 µg/mL)
P. aeruginosa DSM1117
  MIC: 8 µM (≈ 4.04 µg/mL)
S. aureus DSM2569
  MIC: 2 µM (≈ 1.01 µg/mL)
S. flexneri 5a M90T
  MIC: 1 µM (≈ 0.505 µg/mL)
non-growing UPEC CFT073; E. coli in 1:4 CA-MHB (pH 7.4), drug concentration 0.25
  Regrowth, OD600 at 6h or 8h after dilution into drug-free medium (average): 0.634
non-growing UPEC CFT073; E. coli in 1:4 CA-MHB (pH 7.4), drug concentration 0.5
  Regrowth, OD600 at 6h or 8h after dilution into drug-free medium (average): 0.632
non-growing UPEC CFT073; E. coli in 1:4 CA-MHB (pH 7.4), drug concentration 1
  Regrowth, OD600 at 6h or 8h after dilution into drug-free medium (average): 0.646
non-growing UPEC CFT073; E. coli in 1:4 CA-MHB (pH 7.4), drug concentration 2.5
  Regrowth, OD600 at 6h or 8h after dilution into drug-free medium (average): 0.634
non-growing UPEC CFT073; E. coli in 1:4 CA-MHB (pH 7.4), drug concentration 5
  Regrowth, OD600 at 6h or 8h after dilution into drug-free medium (average): 0.636
non-growing UPEC CFT073; E. coli in 1:4 CA-MHB (pH 7.4), drug concentration 10
  Regrowth, OD600 at 6h or 8h after dilution into drug-free medium (average): 0.585
non-growing UPEC CFT073; E. coli in 1:4 CA-MHB (pH 7.4), drug concentration 30
  Regrowth, OD600 at 6h or 8h after dilution into drug-free medium (average): 0.062
non-growing UPEC CFT073; E. coli in LPM (pH 5.5), drug concentration 0.25
  Regrowth, OD600 at 6h or 8h after dilution into drug-free medium (average): 0.602
non-growing UPEC CFT073; E. coli in LPM (pH 5.5), drug concentration 0.5
  Regrowth, OD600 at 6h or 8h after dilution into drug-free medium (average): 0.598
non-growing UPEC CFT073; E. coli in LPM (pH 5.5), drug concentration 1
  Regrowth, OD600 at 6h or 8h after dilution into drug-free medium (average): 0.611
non-growing UPEC CFT073; E. coli in LPM (pH 5.5), drug concentration 2.5
  Regrowth, OD600 at 6h or 8h after dilution into drug-free medium (average): 0.608
non-growing UPEC CFT073; E. coli in LPM (pH 5.5), drug concentration 5
  Regrowth, OD600 at 6h or 8h after dilution into drug-free medium (average): 0.621
non-growing UPEC CFT073; E. coli in LPM (pH 5.5), drug concentration 10
  Regrowth, OD600 at 6h or 8h after dilution into drug-free medium (average): 0.624
non-growing UPEC CFT073; E. coli in LPM (pH 5.5), drug concentration 30
  Regrowth, OD600 at 6h or 8h after dilution into drug-free medium (average): 0.633
non-growing UPEC CFT073; Escherichia coli, E. coli, pH 7.4, regrowth delay of non-growing bacteria, 1:4 CA-MHB, 24 h treatment, OD600 6 h after 2500-fold dilution, read-out: EC50
  pEC50: 4.76
non-growing UPEC CFT073; regrowth delay and killing, Figs. 2 and 3
  activity against non-growing UPEC in LPM (pH 5.5) compared to 1:4 CA-MHB (pH 7.4): active at pH 7.4 and completely inactive in the acidic medium
[1]; drug concentration 0.1
  Regrowth, OD600 at 6h or 8h after dilution into drug-free medium (average): 0.684
[1]; drug concentration 0.5
  Regrowth, OD600 at 6h or 8h after dilution into drug-free medium (average): 0.683
[1]; drug concentration 2.5
  Regrowth, OD600 at 6h or 8h after dilution into drug-free medium (average): 0.676
[1]; drug concentration 10
  Regrowth, OD600 at 6h or 8h after dilution into drug-free medium (average): 0.247
[1]; Staphylococcus aureus, DSM2569, regrowth delay of non-growing bacteria, 1:4 CA-MHB pH 7.4, 24 h treatment, OD600 8 h after dilution, read-out: EC50
  pEC50: 4.71
TC7 cells
  toxicity to TC7 epithelial cells: toxic

## C/C(=N\NC(=N)N)c1cc(NC(=O)CCCCCCCCC(=O)Nc2cc(/C(C)=N/NC(=N)N)cc(/C(C)=N/NC(=N)N)c2)cc(/C(C)=N/NC(=N)N)c1 [semapimod]
non-growing UPEC CFT073; non-growing UPEC, 20 μM
  activity in the dilution-regrowth screen: not among our hits
[2]
  bactericidal activity on stationary-phase E. coli: strong bactericidal activity
